One may read the chromatographic logD as a lipophilicity value derived from retention on a column. Low readings indicate a more hydrophilic compound, high ones a more lipophilic compound. A word on the ΔTm: it is the shift of the melting midpoint relative to a reference. Usually pIC50 stands for the negative decadic logarithm of the IC50, by convention in mol/L. Lower therefore signals a large IC50.

Five compounds from PMC6452685, “Lysyl-tRNA synthetase as a drug target in malaria and cryptosporidiosis” (Proceedings of the National Academy of Sciences of the …, 2019) can be followed below.

The nature of one series: CHI logD. Type of series: physicochemical. The following applies: reversed-phase HPLC (Luna C18 column), pH 7.4. Here is the method: targets. Thi s can be determi ned by ei ther l og D or Log P measurements, whi ch are tradi ti onal ly qui te time consuming and require quite large amounts of com pound to determine accurately.
The CHI Log D assay, fi rst descri bed by Valkό et a l. (17), has been adapt ed and perfo rmed at pH 7. […] An ali quot (10 µl) i s then i njected onto a Luna C18 col umn (Phenomenex, Maccl esfi el d, UK, 4.6 x 150 mm) wi th 5 µ m pa rti cl e size. Mobil e phase A (MPA) i s 50 mM ammoni um acetate (pH 7.4) and mobi l e Phase B (MPB) i s MeCN. The LC system used was a Dionex Ultimate 3000 HLPC where 10 0% MPA was hel d for the i ni ti al 1.5 mi n of the run, then a l i near gradi ent to 0% MPA takes pl ace over the next 10 mi n bef ore being held there fo r a furthe r 2. 5 mi n bef ore re-eq uilibration back to 100% MPA at 14 min with data collection continuing until 1 5 mi n. Flow rate was 1 ml/mi n w i t h det ecti on at 25 4 nm U V and ambi ent t emperat ure.
The ret ent i on t i me (t R) of t he unk nown drug is interpolated from the slope and intercept created us i ng ret ent i on t i mes of s t andard mi x t ure c o mponent s cont ai ni ng paracet amol , t heophy l l i ne, caffei ne, benzi mi dazol e, col chi ci ne, carbamazepi ne, i ndol e, propi ophenone, b uty rophen one , valerophenone and hepatophenone (prepared at 10 µg/ml in MeCN:water [1/1, by v ol ume]), w hi ch cov ers the C HI l og D rang e from -1 t o 4. […]
4.4 Int r ins ic C le ar ance (CLi) experiments
The mous e an d h uman c ry opres erv ed he pat ocy t es w ere s uppl i ed by Xenot ech (bat ches M C 53 9 n a HUE50H ). The procedure was carried out as reported prev i ous l y (15). […] Immediately, at time zero, then at 3, 6, 9, 15 and 30 min an aliquot ( 50 μl) o f the i ncubati on mi x ture was remov ed and mi x ed with acetonitrile (100 μl) contai ni ng i nternal s tandard to stop the reaction. […] XLfi t software (I DBS, Guildford UK) was used to cal cul ate the exponenti al decay and consequentl y the rate cons tant (ke-1) from the rati o of peak area of tes t compou nd to i nternal s tandard at each ti me poi nt . […]

The next series has as its target T1, HsKRS (Homo sapiens, UniProt Q15046).
T1 construct: HsKRS (full-length) proteins; 6xHis (N); made in house; host or cells: E. coli Rosetta BL21(DE3), vector pAVA0421 (UW); template pET28a-KRS
Put plainly: Recombinant KRS thermal shift assay, HsKRS. Type of series: binding. The following applies: 40 µM inhibitor. How it is done:
(§1) 2.9 Recombin ant KR S thermal shift assays ( UW)
(§2) Recombi nant PfKRS1, CpKRS, and HsKRS were di l u ted to 4 µM in assay buffe r c ontaining 20 mM Tris-HC l pH 8, 200 mM NaC l , 5 mM DTT, 5 mM MgC l2 and l i gands (1 mM lysi ne; 40 µM ATP; and 40 µM inhibitors) in various combinations. Ali quot s (10 µl) were added to a 96-well PCR plate and incubated at ambi ent temperature for 15 mi n. SYPRO® Ora n g e dye (I nv itrog en) was di l uted i n ass ay buffer to a 5x concent rat i on a nd 1 0 µl was added to t he P C R pl at e t o bri ng t he fi nal as s ay v ol ume t o 20 µl. The pl at e w as s eal ed and pul s e cent ri fug ed t o cons ol i dat e t he as s ay mix t ure and remov e ai r bu bbl es .
(§3) Us i ng a StepOne Pl us RT-PCR thermal cycler (Ap plied Biosystems) to monitor fluorescence at a n excitation/emission wavelength of 300/470-570 nm, the samples were heated from 25° C to 99° C at a ramp rate of .016° C/sec. Graphpa d® P rism software (GraphPad S oftware, San Diego, CA) was used to determine melting temperatures (Tm) us i ng Bol tzmann s i g moi dal analys is .
(§4) Table S3. Thermal shift data for compounds with P fKRS1, Cp KRS a nd Hs KRS.
(§5) Com poun d Eff ects o n Lys R S M elti ng Tem pe ratu re ( ∆Tm) […]

In series [1] the target is T2, CpKRS (Cryptosporidium parvum, UniProt Q5CR27). Description: CpKRS SAR assay, luciferase ATP consumption (Kinase-Glo). In kind it is biochemical. How it is done:
We produced recombinant PfKRS1 (77–583 and 80–583), CpKRS (46-end), and HsKRS (full-length) proteins and developed biochemical assays based on the luciferase ATP consumption assay (Kinase-Glo; Promega) ([16]), which was suitable for the high-throughput screening, and the pyrophosphate generation assay (EnzChek) ([17]) format for kinetic characterization of the enzymes. The activities of recombinant enzymes were analyzed by monitoring only the first stage of the aminoacylation reaction. This reaction is suitable for high-throughput screening campaigns and makes the reaction more amenable for steady-state kinetic studies. By using the EnzChek assay, which monitors the production of pyrophosphate (when coupled with pyrophosphatase), Km values were obtained for PfKRS1, CpKRS, and HsKRS for ATP and L-lysine (Table 1 and SI Appendix, Fig. S1 and Table S1). […] This may be due to structural differences (see below) between the active sites of the parasite and human enzymes. […]
2.7 PfKR S1, CpKRS and HsKR S S AR Ass ay Usin g L ucife r ase ATP C onsumption ( Kinase Glo ®) Inhi bi ti on of KRS acti vity by cl adospori n and other compou nds was assayed i n t he buffered me di um.
Each as s ay w el l was compos ed of b uffer (as des cri bed i n Ta bl e S3), 10 µM l ysi ne and ei ther 8.1 nM PfKRS1, 8.1 nM CpKRS or 6.6 nM HsKRS. […] The react i on w a s initiated by the addition of 2 µM ATP. The plate was incubated with shaking at 90 rpm and 30°C for 120 mi n. […] Maximum and minimum signal controls were included in each reaction plate. […] Analysis and calculation of inhibitors IC50 values were performed using Graphpad® Prism software (GraphPad S oftware, San Diego, CA). […]
For orientation: In Kinase-Glo more light means more ATP remaining.

Series [2] concerns the target T2, CpKRS. Put plainly: Recombinant KRS thermal shift assay, CpKRS. In kind it is binding. The following applies: 40 µM inhibitor. Here is the method: as §1, §2, §3, §4, §5

pIC50: −log10 of the molar value.

T2 sequence (Q5CR27 entry or part of it): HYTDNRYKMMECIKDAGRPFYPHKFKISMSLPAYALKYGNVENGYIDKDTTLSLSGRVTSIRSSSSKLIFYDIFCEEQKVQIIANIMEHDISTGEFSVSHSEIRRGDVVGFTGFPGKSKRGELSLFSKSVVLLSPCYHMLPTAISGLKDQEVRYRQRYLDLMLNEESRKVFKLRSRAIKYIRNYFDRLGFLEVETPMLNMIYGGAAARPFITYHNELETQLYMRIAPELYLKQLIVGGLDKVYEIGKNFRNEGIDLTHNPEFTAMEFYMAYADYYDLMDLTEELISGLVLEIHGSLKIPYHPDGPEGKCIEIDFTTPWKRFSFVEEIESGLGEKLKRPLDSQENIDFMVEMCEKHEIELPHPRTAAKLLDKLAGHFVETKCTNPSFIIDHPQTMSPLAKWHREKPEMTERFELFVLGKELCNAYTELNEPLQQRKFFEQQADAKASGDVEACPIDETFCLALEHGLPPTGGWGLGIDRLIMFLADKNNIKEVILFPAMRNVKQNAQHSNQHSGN
T1 sequence (Q15046 whole entry): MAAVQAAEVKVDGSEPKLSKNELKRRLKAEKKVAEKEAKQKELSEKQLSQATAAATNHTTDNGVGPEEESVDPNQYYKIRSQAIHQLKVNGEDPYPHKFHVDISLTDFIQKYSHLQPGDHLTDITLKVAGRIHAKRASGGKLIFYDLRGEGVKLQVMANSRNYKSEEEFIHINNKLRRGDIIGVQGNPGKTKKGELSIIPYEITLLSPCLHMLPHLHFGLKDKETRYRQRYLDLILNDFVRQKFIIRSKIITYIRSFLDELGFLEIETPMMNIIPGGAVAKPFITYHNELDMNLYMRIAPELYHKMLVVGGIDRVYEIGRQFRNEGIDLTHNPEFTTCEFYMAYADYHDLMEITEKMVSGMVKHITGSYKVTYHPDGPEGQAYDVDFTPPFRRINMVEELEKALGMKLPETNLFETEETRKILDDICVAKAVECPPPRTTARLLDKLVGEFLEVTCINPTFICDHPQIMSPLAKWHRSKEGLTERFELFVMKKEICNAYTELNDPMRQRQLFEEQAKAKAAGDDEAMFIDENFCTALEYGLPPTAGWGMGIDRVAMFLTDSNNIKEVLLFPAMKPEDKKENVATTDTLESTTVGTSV

The compound `O=C(NCC1(O)CCC(F)(F)CC1)c1cc(=O)c2cc(F)ccc2o1` [Compound 5] registered a chromatographic logD in “CHI logD” of 1.7. For the same compound, the thermal shift (ΔTm) at 40 µM is -7.4 °C on HsKRS (ATP + Lysine); 0.4 °C at HsKRS (ATP); -7.6 °C on HsKRS (Lysine); 0.3 °C on HsKRS (no substrate); 13 °C on CpKRS [2] (ATP + Lysine); -0.2 °C at CpKRS [2] (ATP). For the same compound, the ΔTm at 40 µM on CpKRS [2] (Lysine) was 14.7 °C; on CpKRS [2] (no substrate) it was -0.5 °C. Moreover, the pIC50 against CpKRS [1] is 6.89.
Consider `O=C(NCC1(O)CCCCC1)c1cc(=O)c2cc(F)ccc2o1` [Compound 4], for which the ΔTm at 40 µM at HsKRS (ATP + Lysine) was -7.2 °C; on HsKRS (ATP), -0.1 °C; at HsKRS (Lysine), -7.4 °C; at HsKRS (no substrate), -0.5 °C; at CpKRS [2] (ATP + Lysine), 11.8 °C; at CpKRS [2] (ATP), 0 °C. Also, the ΔTm at 40 µM was 18.4 °C on CpKRS [2] (Lysine) and -0.2 °C at CpKRS [2] (no substrate). Besides, the pIC50 against CpKRS [1] was 8.10.
Take `O=C(NCC1CCCCC1)c1cc(=O)c2cc(F)ccc2o1` [Compound 3]: the shift in melting temperature (ΔTm) at 40 µM at HsKRS (ATP + Lysine) is -10.8 °C; on HsKRS (ATP) it was 0.4 °C; on HsKRS (Lysine) it was -8.4 °C; on HsKRS (no substrate), -0.1 °C; on CpKRS [2] (ATP + Lysine) it was 0.8 °C; on CpKRS [2] (ATP), 0.2 °C. Also, the ΔTm at 40 µM at CpKRS [2] (Lysine) was 1.2 °C; at CpKRS [2] (no substrate), -0.2 °C. The pIC50 against CpKRS [1] is 7.41.
In turn, `C[C@H]1CCC[C@H](C[C@H]2Cc3cc(O)cc(O)c3C(=O)O2)O1` [Compound 1, cladosporin, reference compound] returned a chromatographic logD in “CHI logD” of 2.4. The ΔTm at 40 µM is -8.2 °C on HsKRS (ATP + Lysine); 0.3 °C on HsKRS (ATP); -9.2 °C on HsKRS (Lysine); -0.1 °C at HsKRS (no substrate); 14 °C at CpKRS [2] (ATP + Lysine); 0.1 °C on CpKRS [2] (ATP). Also, the ΔTm at 40 µM on CpKRS [2] (Lysine) is 19.5 °C; on CpKRS [2] (no substrate) it was -0.1 °C. In addition, on CpKRS [1], the negative logarithm of the IC50 (pIC50) was 7.42.
For `O=C(NCC1CCCCC1)c1cc(=O)c2ccccc2o1` [Compound 2], in the series “CHI logD”, the chromatographic logD was determined as 2.9. The ΔTm at 40 µM is -8.6 °C on HsKRS (ATP + Lysine); 0.3 °C at HsKRS (ATP); -10 °C on HsKRS (Lysine); -0.3 °C on HsKRS (no substrate); 11.7 °C on CpKRS [2] (ATP + Lysine); 0.7 °C on CpKRS [2] (ATP). Besides, the ΔTm at 40 µM at CpKRS [2] (Lysine) was determined as 19.3 °C; at CpKRS [2] (no substrate), 0 °C. Further, the pIC50 at CpKRS [1] is 7.66.
